Test results as given in patent US8067454B2, “Thio-substituted Anthra [1, 2-d] imidazole- 6, 11-dione derivatives, preparation method and application thereof” (National Defense Medical Center, priority 2010, dated 2011).

Key:
T-47D = test: NCI 60-cell drug screen, Breast Cancer T-47D; type: cell-based, human; settings: 1.00E−5 Molar
DU-145 = test: NCI 60-cell drug screen, Prostate Cancer DU-145; type: cell-based, human; settings: 1.00E−5 Molar
MOLT-4 = test: NCI 60-cell drug screen, Leukemia MOLT-4; type: cell-based, human; settings: 1.00E−5 Molar
NCI-H226 = test: NCI 60-cell drug screen, Non-Small Cell Lung Cancer NCI-H226; type: cell-based, human; settings: 1.00E−5 Molar
SNB-75 = test: NCI 60-cell drug screen, CNS Cancer SNB-75; type: cell-based, human; settings: 1.00E−5 Molar
NCI/ADR-RES = test: NCI 60-cell drug screen, Ovarian Cancer NCI/ADR-RES; type: cell-based, human; settings: 1.00E−5 Molar
Method: In brief, cellular protein levels were determined after 48 hours of drug exposure by sulforhodamine B colorimetry. Through the use of a time 0 cell control, the cell growth can be determined for each cell line thus allowing calculations of the 50% growth inhibitory concentration (GI50), the total growth inhibition (TGI), and the 50% lethal concentration (LC50). Comparison to plates not exposed to drug permits determination of concentration and times of exposure conferring 50% net growth inhibition (GI50), TGI, and 50% cell kill (LC50).
From the data analysis it follows that approximately 95% of the actives (potent anticancer drugs) from the 60 cell line screen can be identified. By these criteria, 6 compounds (each with its certification number, refer to Table 2) of the invention were reported that having anticancer activity.
The screening system in United State National Cancer Institute (NCI) consists of 60 kinds of different human cancer cells, which can be used to assay the growth-inhibiting ability or cell toxicity of a compound against various cancer and tumor at a certain concentration.
NCI had selected 6 compounds f1-0, f1-1, f3-1, f1-11, f1-2 and f1-15 as test compounds (Table 2). Among these compounds, compound f1-1 was effective against renal cancer cell strain CAKI-1, and could achieve an inhibition effect on the growth of said cancer cell up to −8.01. Compound f1-11 could achieve inhibiting effects against leukemia cell line CCRF-CEM and RPMI-8226, up to −15.39 and −60.17, respectively. Compound f1-2 was effective against central nervous system cancer cell line SNB-75, and could achieve an effect of inhibiting said cancer cell growth up to −9.55. Compound f1-15 was effective against leukemia (blood cancer) cell line K-562, MOLT-4, and RPMI-8226, and could achieve effects of inhibiting said cancer cells growth up to −31.59, −2.90 and −13.69, respectively. Further, compound f1-15 was effective also against renal cancer cell line CAKI-1, and could achieve an effect of inhibiting said cancer cell growth up to −14.89.

UACC-257 = test: NCI 60-cell drug screen, Melanoma UACC-257; type: cell-based, human; settings: 1.00E−5 Molar
RPMI-8226 = test: NCI 60-cell drug screen, Leukemia RPMI-8226; type: cell-based, human; settings: 1.00E−5 Molar
SK-MEL-5 = test: NCI 60-cell drug screen, Melanoma SK-MEL-5; type: cell-based, human; settings: 1.00E−5 Molar
SK-MEL-28 = test: NCI 60-cell drug screen, Melanoma SK-MEL-28; type: cell-based, human; settings: 1.00E−5 Molar
NCI-H322M = test: NCI 60-cell drug screen, Non-Small Cell Lung Cancer NCI-H322M; type: cell-based, human; settings: 1.00E−5 Molar
HOP-62 = test: NCI 60-cell drug screen, Non-Small Cell Lung Cancer HOP-62; type: cell-based, human; settings: 1.00E−5 Molar
CCRF-CEM = test: NCI 60-cell drug screen, Leukemia CCRF-CEM; type: cell-based, human; settings: 1.00E−5 Molar
OVCAR-4 = test: NCI 60-cell drug screen, Ovarian Cancer OVCAR-4; type: cell-based, human; settings: 1.00E−5 Molar
HCT-15 = test: NCI 60-cell drug screen, Colon Cancer HCT-15; type: cell-based, human; settings: 1.00E−5 Molar
MALME-3M = test: NCI 60-cell drug screen, Melanoma MALME-3M; type: cell-based, human; settings: 1.00E−5 Molar
RXF 393 = test: NCI 60-cell drug screen, Renal Cancer RXF 393; type: cell-based, human; settings: 1.00E−5 Molar
786-0 = test: NCI 60-cell drug screen, Renal Cancer 786-0; type: cell-based, human; settings: 1.00E−5 Molar
OVCAR-8 = test: NCI 60-cell drug screen, Ovarian Cancer OVCAR-8; type: cell-based, human; settings: 1.00E−5 Molar
[1] = tested on: 60 kinds of different human cancer cells; test: NCI 60-cell drug screen, whole panel (One Dose Mean Graph); type: cell-based; settings: mean over the cell lines of the panel; 1.00E−5 Molar
EKVX = test: NCI 60-cell drug screen, Non-Small Cell Lung Cancer EKVX; type: cell-based, human; settings: 1.00E−5 Molar
MDA-MB-435 = test: NCI 60-cell drug screen, Melanoma MDA-MB-435; type: cell-based, human; settings: 1.00E−5 Molar
HOP-92 = test: NCI 60-cell drug screen, Non-Small Cell Lung Cancer HOP-92; type: cell-based, human; settings: 1.00E−5 Molar
MDA-MB-231/ATCC = test: NCI 60-cell drug screen, Breast Cancer MDA-MB-231/ATCC; type: cell-based, human; settings: 1.00E−5 Molar
SVG p12 = test: MTT assay, SVG p12 normal cell; settings: concentration 10 μM, normal cell
COLO 205 = test: NCI 60-cell drug screen, Colon Cancer COLO 205; type: cell-based, human; settings: 1.00E−5 Molar
SF-539 = test: NCI 60-cell drug screen, CNS Cancer SF-539; type: cell-based, human; settings: 1.00E−5 Molar
IGROV1 = test: NCI 60-cell drug screen, Ovarian Cancer IGROV1; type: cell-based, human; settings: 1.00E−5 Molar
MCF7 = test: NCI 60-cell drug screen, Breast Cancer MCF7; type: cell-based, human; settings: 1.00E−5 Molar
A498 = test: NCI 60-cell drug screen, Renal Cancer A498; type: cell-based, human; settings: 1.00E−5 Molar
KM12 = test: NCI 60-cell drug screen, Colon Cancer KM12; type: cell-based, human; settings: 1.00E−5 Molar
A549/ATCC = test: NCI 60-cell drug screen, Non-Small Cell Lung Cancer A549/ATCC; type: cell-based, human; settings: 1.00E−5 Molar
SW-620 = test: NCI 60-cell drug screen, Colon Cancer SW-620; type: cell-based, human; settings: 1.00E−5 Molar
UO-31 = test: NCI 60-cell drug screen, Renal Cancer UO-31; type: cell-based, human; settings: 1.00E−5 Molar
U251 = test: NCI 60-cell drug screen, CNS Cancer U251; type: cell-based, human; settings: 1.00E−5 Molar
GBM8901 = test: MTT assay, GBM8901 tumor cell; settings: concentration 10 μM, tumor cell
SK-MEL-2 = test: NCI 60-cell drug screen, Melanoma SK-MEL-2; type: cell-based, human; settings: 1.00E−5 Molar
NCI-H23 = test: NCI 60-cell drug screen, Non-Small Cell Lung Cancer NCI-H23; type: cell-based, human; settings: 1.00E−5 Molar
LOX IMVI = test: NCI 60-cell drug screen, Melanoma LOX IMVI; type: cell-based, human; settings: 1.00E−5 Molar

Row | SMILES | Growth Percent, T-47D (T-47D) | Growth Percent, DU-145 (DU-145) | Growth Percent, MOLT-4 (MOLT-4) | Growth Percent, NCI-H226 (NCI-H226) | Growth Percent, SNB-75 (SNB-75) | Growth Percent, NCI/ADR-RES (NCI/ADR-RES) | Growth Percent, UACC-257 (UACC-257) | Growth Percent, RPMI-8226 (RPMI-8226) | Growth Percent, SK-MEL-5 (SK-MEL-5) | Growth Percent, SK-MEL-28 (SK-MEL-28) | Growth Percent, NCI-H322M (NCI-H322M) | Growth Percent, HOP-62 (HOP-62) | Growth Percent, CCRF-CEM (CCRF-CEM) | Growth Percent, OVCAR-4 (OVCAR-4) | Growth Percent, HCT-15 (HCT-15) | Growth Percent, MALME-3M (MALME-3M) | Growth Percent, RXF 393 (RXF 393) | Growth Percent, 786-0 (786-0) | Growth Percent, OVCAR-8 (OVCAR-8) | Growth Percent, Mean [1] | also measured
1 | O=C1c2ccccc2C(=O)c2c1ccc1nc(S)[nH]c21 [f1-0, 2-Mercapto-1(3)H-anthra[1,2-d]imidazole-6,11-dione] | 81.86% | 99.28% | 108.60% | 83.74% | 100.90% | 109.60% | 105.26% | 101.22% | 86.66% | 118.39% | 96.31% | 96.74% | 61.91% | 91.57% | 83.78% | 87.50% | 141.66% | 95.78% | 139.75% | 99.72% | Growth Percent, EKVX (EKVX): 50.53%; Growth Percent, MDA-MB-435 (MDA-MB-435): 114.02%; Growth Percent, HOP-92 (HOP-92): 65.48%; Growth Percent, MDA-MB-231/ATCC (MDA-MB-231/ATCC): 108.18%; Cell survival rate (%) SVG p12 (SVG p12): 82 ± 5%; Growth Percent, COLO 205 (COLO 205): 103.96%; Growth Percent, SF-539 (SF-539): 91.35%; Growth Percent, IGROV1 (IGROV1): 138.25%; Growth Percent, MCF7 (MCF7): 75.91%; Growth Percent, A498 (A498): 94.31%; Growth Percent, KM12 (KM12): 101.59%; Growth Percent, A549/ATCC (A549/ATCC): 118.18%; Growth Percent, SW-620 (SW-620): 97.56%; Growth Percent, UO-31 (UO-31): 97.83%; Growth Percent, U251 (U251): 88.79%; Cell survival rate (%) GBM8901 (GBM8901): 78 ± 13%; Growth Percent, SK-MEL-2 (SK-MEL-2): 134.35%; Growth Percent, NCI-H23 (NCI-H23): 113.34%; Growth Percent, LOX IMVI (LOX IMVI): 84.00%
2 | CCSc1nc2ccc3c(c2[nH]1)C(=O)c1ccccc1C3=O [f1-1, 2-(Ethylthio)-1H-anthra[1,2-d]imidazole-6,11-dione] | 30.78% | 64.51% | 100.70% | 62.07% | 73.34% | 85.72% | 111.80% | 28.52% | 63.93% | 97.72% | 33.44% | 96.59% | 36.87% | 55.05% | 32.29% | 63.33% | 99.91% | 85.38% | 96.82% | 67.96% | Growth Percent, EKVX (EKVX): 43.67%; Growth Percent, MDA-MB-435 (MDA-MB-435): 68.42%; Growth Percent, HOP-92 (HOP-92): 75.35%; Growth Percent, MDA-MB-231/ATCC (MDA-MB-231/ATCC): 84.79%; Cell survival rate (%) SVG p12 (SVG p12): 98 ± 8%; Growth Percent, COLO 205 (COLO 205): 71.84%; Growth Percent, SF-539 (SF-539): 58.58%; Growth Percent, IGROV1 (IGROV1): 73.41%; Growth Percent, MCF7 (MCF7): 43.81%; Growth Percent, A498 (A498): 75.49%; Growth Percent, KM12 (KM12): 68.26%; Growth Percent, A549/ATCC (A549/ATCC): 100.94%; Growth Percent, SW-620 (SW-620): 84.53%; Growth Percent, UO-31 (UO-31): 49.19%; Growth Percent, U251 (U251): 65.03%; Cell survival rate (%) GBM8901 (GBM8901): 58 ± 7%; Growth Percent, SK-MEL-2 (SK-MEL-2): 81.65%; Growth Percent, NCI-H23 (NCI-H23): 87.41%; Growth Percent, LOX IMVI (LOX IMVI): 36.72%
3 | CCCSc1nc2ccc3c(c2[nH]1)C(=O)c1ccccc1C3=O [f1-2, 2-(propylthio)-1H-anthra[1,2-d]imidazole-6,11-dione] | 53.72% | 69.29% | 68.13% | 50.24% | −9.55% | 50.22% | 86.31% | 71.75% | 78.52% | 92.59% | 76.02% | 59.09% | 70.83% | 42.16% | 67.65% | 88.24% | 20.07% | 21.82% | 44.68% | 60.02% | Growth Percent, EKVX (EKVX): 76.83%; Growth Percent, MDA-MB-435 (MDA-MB-435): 77.38%; Growth Percent, HOP-92 (HOP-92): 17.25%; Growth Percent, MDA-MB-231/ATCC (MDA-MB-231/ATCC): 26.44%; Cell survival rate (%) SVG p12 (SVG p12): 99%; Growth Percent, COLO 205 (COLO 205): 102.68%; Growth Percent, SF-539 (SF-539): 23.99%; Growth Percent, IGROV1 (IGROV1): 53.72%; Growth Percent, MCF7 (MCF7): 58.97%; Growth Percent, A498 (A498): 57.26%; Growth Percent, KM12 (KM12): 55.17%; Growth Percent, A549/ATCC (A549/ATCC): 59.15%; Growth Percent, SW-620 (SW-620): 104.18%; Growth Percent, UO-31 (UO-31): 24.49%; Growth Percent, U251 (U251): 62.95%; Cell survival rate (%) GBM8901 (GBM8901): 62 ± 7%; Growth Percent, SK-MEL-2 (SK-MEL-2): 79.33%; Growth Percent, NCI-H23 (NCI-H23): 69.80%; Growth Percent, LOX IMVI (LOX IMVI): 62.57%
